ChEMBL document CHEMBL1121462, “Effect of changing the COOH-terminal amide group present in the hydrophilic cluster of oxytocin to dimethylamide” (1980)

Columns and labels:
Rattus norvegicus [1] = species on record: Rattus norvegicus; experiment: Potency by rat antidiuretic assay; format: functional, Urine
Rattus norvegicus [2] = species on record: Rattus norvegicus; experiment: Potency by rat pressor assay; format: functional
Gallus gallus = species on record: Gallus gallus; experiment: Potency by avian vasodepressor assay

In the case of `CC[C@H](C)[C@@H]1NC(=O)[C@H](Cc2ccc(O)cc2)NC(=O)[C@@H](N)CSSC[C@@H](C(=O)N2CCC[C@H]2C(=O)N[C@@H](CC(C)C)C(=O)NCC(=O)N(C)C)NC(=O)[C@H](CC(N)=O)NC(=O)[C@H](CCC(N)=O)NC1=O`, the Potency (Rattus norvegicus [1]) is reported as 0.096 mg, the Potency (Rattus norvegicus [2]) is reported as less than 0.01 mg and the Potency (Gallus gallus) is reported as less than 0.07 mg.
